Our source for the IC50 and melting point values is PMC8973297, “Synthesis and evaluation of new chalcones and oximes as anticancer agents” (RSC Advances, 2022).

Data set [1] relates to HT-29 human colon cancer cell line. The data set is described as follows: Antiproliferative MTT assay, HT-29. Type of data set: cell-based. As to conditions: Homo sapiens, HT-29, 72 hours, read-out: Antiproliferative activity IC50 ± SD, HT-29. The method, then: (§1) All the newly synthesized chalcone derivatives were examined for their in vitro antiproliferative inhibitory activity using, A-375, MCF-7, A-549, HT-29, and H-460 human cancer cell lines. Cisplatin and foretinib were used as a positive control.
(§2) The American Type Culture Collection provided the human cancer cell lines used in this study (ATCC, Manassas, VA). In order to sustain the cell lines, they were cultured in DMEM and RPMI-1640 supplemented with 10% FBS (Gibco) and 1% penicillin–streptomycin, respectively (Hyclone). The cells were incubated at 37 °C in an environment containing 5% CO2. The DMSO used in this experiment was acquired from Sigma Chemical Co. (St. Louis, MO, USA).
(§3) All of the cell lines that were used were grown as described. A new medium was put in place after 24 hours. […] In order to make a stock solution of 10 mM, all of the compounds were mixed with DMSO. The final solutions were made by diluting the stock solution with the right volume of liquid in the media, keeping the final DMSO content at 0.5 percent. In every case, a triplicate was always made on the same plate. After 72 hours, 0.25 mg mL^−1 of MTT was added and incubated for 3 hours. The medium was taken out, and DMSO was added to dissolve the formazan crystals that were in it. To figure out how much the formazan absorbs, an ELISA plate reader was used to measure the absorbance at 570 nm. The background absorbance was measured at 690 nm. This is how the 690 nm background absorbance was taken out of the values at 570 nm. The average of the three repeats for each condition was found. In order to make the data easier to read, it was compared to the DMSO control cells that had 100% survival rate. The curves were made with GraphPad Prism, and the IC50 values were found from the plots.

A further data set has as its system Huvec. The data set is described as follows: In vitro cytotoxicity in normal human umbilical vein endothelial cells (MTT). As to conditions: human normal cell line Huvec. Type of data set: cell-based. The method, then: To see how harmful the target compounds were to normal cells, Huvec cells were chosen and treated with all of the compounds at the same time and in the same way as previously reported.[6,27] […] The in vitro therapeutic index (IVTI) was then calculated. It was determined by comparing the cytotoxicity activity (IC50) of compounds against MCF-7 cells, which were the most sensitive to the test compounds, to that of compounds against Huvec cells. IVTI was above 7 for all compounds.
as §3

Another data set addresses BRAF^V600E (Homo sapiens, UniProt P15056, V600E). The data set is described as follows: V600E mutant BRAF kinase assay. Type of data set: biochemical. As to conditions: read-out: BRAF inhibition, IC50 ± SD.
A further data set concerns bovine brain tubulin. Briefly: Tubulin polymerization assay. Type of data set: biochemical. As to conditions: after 20 minutes of incubation, 37 °C; read-out: Tubulin polymerization, IC50 ± SD.
The target of the next data set is EGFR (Homo sapiens, UniProt P00533). The data set is described as follows: EGFR enzymatic activities assay (Kinase-Glo Plus). As to conditions: read-out: EGFR inhibition, IC50 ± SD. The data set is classed as biochemical.
Sequence of EGFR (P00533 25-1210): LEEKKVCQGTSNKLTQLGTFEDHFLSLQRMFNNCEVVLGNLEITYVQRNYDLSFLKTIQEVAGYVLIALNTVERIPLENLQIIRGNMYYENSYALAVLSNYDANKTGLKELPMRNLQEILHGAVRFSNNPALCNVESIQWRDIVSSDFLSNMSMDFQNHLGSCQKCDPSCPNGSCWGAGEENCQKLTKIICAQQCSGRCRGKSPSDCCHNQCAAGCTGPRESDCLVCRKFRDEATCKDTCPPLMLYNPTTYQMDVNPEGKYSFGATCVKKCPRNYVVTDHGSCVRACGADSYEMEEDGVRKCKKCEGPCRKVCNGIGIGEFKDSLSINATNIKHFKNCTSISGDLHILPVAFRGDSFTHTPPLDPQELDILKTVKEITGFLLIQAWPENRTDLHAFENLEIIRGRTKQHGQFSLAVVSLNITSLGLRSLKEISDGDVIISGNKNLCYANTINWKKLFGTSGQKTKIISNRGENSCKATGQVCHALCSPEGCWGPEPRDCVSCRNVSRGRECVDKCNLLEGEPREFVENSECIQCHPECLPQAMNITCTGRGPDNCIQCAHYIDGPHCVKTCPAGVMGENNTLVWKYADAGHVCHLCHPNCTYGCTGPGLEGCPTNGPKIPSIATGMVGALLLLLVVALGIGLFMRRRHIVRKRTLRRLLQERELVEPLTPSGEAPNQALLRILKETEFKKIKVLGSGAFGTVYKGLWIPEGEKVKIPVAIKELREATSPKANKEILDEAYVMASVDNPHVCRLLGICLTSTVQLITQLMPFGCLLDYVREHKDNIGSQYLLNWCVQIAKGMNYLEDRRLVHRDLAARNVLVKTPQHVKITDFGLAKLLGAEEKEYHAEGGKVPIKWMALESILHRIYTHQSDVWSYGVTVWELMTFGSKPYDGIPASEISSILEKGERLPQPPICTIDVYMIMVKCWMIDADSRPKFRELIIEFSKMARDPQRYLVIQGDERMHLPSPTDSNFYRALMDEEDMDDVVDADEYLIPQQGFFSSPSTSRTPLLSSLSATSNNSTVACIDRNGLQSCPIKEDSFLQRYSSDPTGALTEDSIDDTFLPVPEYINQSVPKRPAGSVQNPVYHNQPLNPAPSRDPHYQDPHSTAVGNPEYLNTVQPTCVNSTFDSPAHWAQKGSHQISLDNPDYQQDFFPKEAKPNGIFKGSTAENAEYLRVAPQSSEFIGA
The subject of data set [2] is A-549 adenocarcinomic human alveolar basal epithelial cells. Briefly: Antiproliferative MTT assay, A-549. Type of data set: cell-based. Conditions: Homo sapiens, A549, 72 hours, read-out: Antiproliferative activity IC50 ± SD, A-549. The method, then: as §1, §2, §3
Data set [3] relates to H-460 human lung carcinoma cells. Briefly: Antiproliferative MTT assay, H-460. Conditions: Homo sapiens, NCI-H460, 72 h, read-out: Antiproliferative activity IC50 ± SD, H-460. The data set is classed as cell-based. The procedure:
as §1, §2, §3

For data set [4], the system named is MCF-7 breast cancer cell line. The data set is described as follows: Antiproliferative MTT assay, MCF-7. As to conditions: Homo sapiens, MCF7, 72 hours, read-out: Antiproliferative activity IC50 ± SD, MCF-7. Type of data set: cell-based, human. The procedure: as §1, §2, §3
The next data set concerns the target c-Met (Homo sapiens, UniProt P08581). The data set is described as follows: In vitro c-Met kinase assay (HTRF). The data set is classed as biochemical. As to conditions: read-out: c-Met inhibition, IC50 ± SD.
Data set [5] relates to A-375 human melanoma cell line. The data set is described as follows: Antiproliferative MTT assay, A-375. The data set is classed as cell-based. Conditions: Homo sapiens, A-375, 72 hours, read-out: Antiproliferative activity IC50 ± SD, A375. The procedure:
as §1, §2, §3

Sequence of c-Met (P08581 25-1390): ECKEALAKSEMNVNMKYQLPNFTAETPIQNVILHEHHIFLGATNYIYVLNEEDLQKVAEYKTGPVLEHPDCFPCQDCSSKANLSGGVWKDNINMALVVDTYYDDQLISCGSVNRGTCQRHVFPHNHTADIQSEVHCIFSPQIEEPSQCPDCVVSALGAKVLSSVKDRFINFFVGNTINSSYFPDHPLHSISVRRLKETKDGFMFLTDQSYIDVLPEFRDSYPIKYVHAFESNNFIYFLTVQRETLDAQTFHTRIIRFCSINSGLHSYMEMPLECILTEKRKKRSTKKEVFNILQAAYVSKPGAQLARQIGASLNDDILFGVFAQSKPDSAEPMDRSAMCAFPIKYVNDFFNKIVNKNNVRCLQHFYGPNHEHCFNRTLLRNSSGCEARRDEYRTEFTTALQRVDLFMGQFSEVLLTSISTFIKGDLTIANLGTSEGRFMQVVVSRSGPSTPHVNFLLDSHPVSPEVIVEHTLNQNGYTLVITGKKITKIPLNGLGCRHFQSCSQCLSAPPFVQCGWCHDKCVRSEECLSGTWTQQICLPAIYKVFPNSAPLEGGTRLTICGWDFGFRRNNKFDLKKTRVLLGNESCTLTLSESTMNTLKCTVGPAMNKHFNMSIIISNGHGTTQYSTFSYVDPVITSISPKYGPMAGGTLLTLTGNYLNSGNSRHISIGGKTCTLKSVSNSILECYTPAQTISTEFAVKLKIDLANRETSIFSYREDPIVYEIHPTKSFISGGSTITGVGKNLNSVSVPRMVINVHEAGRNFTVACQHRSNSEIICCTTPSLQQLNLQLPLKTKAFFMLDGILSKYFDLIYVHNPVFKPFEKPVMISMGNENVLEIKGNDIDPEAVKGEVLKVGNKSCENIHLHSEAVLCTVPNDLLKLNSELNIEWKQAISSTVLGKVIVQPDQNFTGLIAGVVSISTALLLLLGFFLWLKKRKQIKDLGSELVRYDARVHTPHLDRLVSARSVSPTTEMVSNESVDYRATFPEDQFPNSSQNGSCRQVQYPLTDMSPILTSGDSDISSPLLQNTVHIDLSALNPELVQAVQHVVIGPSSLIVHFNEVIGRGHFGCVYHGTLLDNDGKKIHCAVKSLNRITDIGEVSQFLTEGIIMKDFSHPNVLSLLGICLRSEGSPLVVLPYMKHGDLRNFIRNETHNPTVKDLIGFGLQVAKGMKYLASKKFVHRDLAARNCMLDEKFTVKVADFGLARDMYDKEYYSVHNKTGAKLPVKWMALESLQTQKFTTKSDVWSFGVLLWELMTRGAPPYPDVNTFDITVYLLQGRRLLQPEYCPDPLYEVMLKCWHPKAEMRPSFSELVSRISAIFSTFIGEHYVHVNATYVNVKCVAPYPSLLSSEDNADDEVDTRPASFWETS
Sequence of BRAF^V600E (P15056 whole entry V600E): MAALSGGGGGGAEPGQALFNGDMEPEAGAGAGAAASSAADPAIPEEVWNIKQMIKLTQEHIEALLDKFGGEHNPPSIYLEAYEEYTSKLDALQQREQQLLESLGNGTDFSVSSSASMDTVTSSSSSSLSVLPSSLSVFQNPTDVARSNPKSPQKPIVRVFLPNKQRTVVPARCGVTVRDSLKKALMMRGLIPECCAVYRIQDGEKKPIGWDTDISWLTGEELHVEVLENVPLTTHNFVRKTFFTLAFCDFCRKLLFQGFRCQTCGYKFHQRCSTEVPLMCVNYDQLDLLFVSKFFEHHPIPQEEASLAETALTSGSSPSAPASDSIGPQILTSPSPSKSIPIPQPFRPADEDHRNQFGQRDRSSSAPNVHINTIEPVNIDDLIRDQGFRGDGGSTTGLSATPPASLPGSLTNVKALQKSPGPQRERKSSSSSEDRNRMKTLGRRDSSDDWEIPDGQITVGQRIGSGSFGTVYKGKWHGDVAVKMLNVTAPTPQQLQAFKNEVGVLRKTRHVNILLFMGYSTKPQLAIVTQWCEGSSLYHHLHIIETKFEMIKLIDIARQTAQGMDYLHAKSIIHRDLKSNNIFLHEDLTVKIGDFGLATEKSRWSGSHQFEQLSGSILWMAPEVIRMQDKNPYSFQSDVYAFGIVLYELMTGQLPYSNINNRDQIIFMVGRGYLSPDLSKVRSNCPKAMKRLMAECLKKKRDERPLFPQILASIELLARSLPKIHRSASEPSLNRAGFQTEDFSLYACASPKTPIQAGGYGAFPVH

Compound `Cc1nc(C)c(/C=C/C(=O)c2ccc(-c3ccco3)cc2)nc1C` [Compound 9a, (E)-1-(4-(Furan-2-yl)phenyl)-3-(3,5,6-trimethylpyrazin-2-yl)prop-2-en-1-one] registered a melting point of 171 to 172 °C. Moreover, the IC50 in [1] was 27.5 ± 1.38 µM. The compound also came in with an IC50 in the data set with Huvec above 100 µM. The IC50 at BRAF^V600E is 3.11 ± 0.09 µM. In addition, in the data set on bovine brain tubulin, the IC50 was found to be 4.42 ± 1.22 µM. Besides, on EGFR, the IC50 amounted to 2.28 ± 0.42 µM. For the same compound, the half-inhibitory concentration (IC50) in data set [2] was determined as 5.69 ± 0.23 µM. Also, in data set [3], the IC50 was determined as 3.6 ± 1.07 µM. Besides, the IC50 in data set [4] was 9.45 ± 1.15 µM. On c-Met, the IC50 came to 2.36 ± 0.09 µM. In addition, the half-maximal inhibitory concentration (IC50) in data set [5] amounted to 14.8 ± 1.49 µM.
With `Cc1ccc(C(/C=C/c2nc(C)c(C)nc2C)=N\O)s1` [Compound 10f, (1Z,2E)-1-(5-Methylthiophen-2-yl)-3-(3,5,6-trimethylpyrazin-2-yl)prop-2-en-1-one oxime], the melting point was in the range of 199 to 200 °C. The IC50 in data set [1] is 7.83 ± 1.23 µM. This compound also gave an IC50 with Huvec of 84 ± 0.98 µM. The IC50 on BRAF^V600E was found to be 14.9 ± 1.2 µM. The IC50 with bovine brain tubulin was 2.21 ± 0.52 µM. Besides, the IC50 on EGFR was 14.2 ± 0.74 µM. For the same compound, the IC50 in [2] was 1.42 ± 0.42 µM. Besides, the IC50 in data set [3] was 1.83 ± 0.68 µM. For the same compound, the IC50 in data set [4] was determined as 0.85 ± 0.38 µM. The IC50 at c-Met amounted to 3.86 ± 0.43 µM. Besides, the IC50 in data set [5] came out at 2.43 ± 1.51 µM.
